How the values were obtained:
[1] = xn = mol fraction of the nth substance listed; settings: 102 kPa, Liquid, x2 = 0; for viscosity: Concentric cylinders viscometry; for mass density: Vibrating tube method
[2] = 102 kPa, Liquid; for viscosity: Concentric cylinders viscometry; for speed of sound: Frequency=3 MHz, Single path-length method; for mass density: Vibrating tube method

CCCCCCCCCCCCCCCC [hexadecane] + CCCCCCCCCCC1CCCCC1
[1]
Settings | mass density [kg/m3] | viscosity [mPa·s]
293.15 K | 773.37 | 3.47
303.15 K | 766.43 | 2.76
313.15 K | 759.51 | 2.24
323.15 K | 752.61 | 1.86
333.15 K | 745.69 | 1.56
343.15 K | 738.8 | 1.35
353.15 K | 731.9 | 1.15
363.15 K | 724.9 | 1.02
373.15 K | 717.9 | 0.885

CCCCCCCC1CCCCC1 [heptylcyclohexane]
[2]
Settings | mass density [kg/m3] | speed of sound [m/s] | viscosity [mPa·s]
293.15 K | 810.99 | 1374.4 | 2.8
303.15 K | 803.96 | 1336.1 | 2.26
313.15 K | 796.93 | 1298.7 | 1.86
323.15 K | 789.89 | 1262.1 | 1.56
333.15 K | 782.83 | 1226.5 | 1.33
343.15 K | 775.8 | – | 1.15
353.15 K | 768.7 | – | 0.993
363.15 K | 761.6 | – | 0.892
373.15 K | 754.4 | – | 0.776

CCCCCCCCCCCCCCCC [hexadecane] + CCCCCCCCCC1CCCCC1
[1]
Settings | mass density [kg/m3] | viscosity [mPa·s]
293.15 K | 773.37 | 3.47
303.15 K | 766.43 | 2.76
313.15 K | 759.51 | 2.24
323.15 K | 752.61 | 1.86
333.15 K | 745.69 | 1.56
343.15 K | 738.8 | 1.35
353.15 K | 731.9 | 1.15
363.15 K | 724.9 | 1.02
373.15 K | 717.9 | 0.885

CCCCCCCCC1CCCCC1 [octylcyclohexane]
[2]
Settings | mass density [kg/m3] | speed of sound [m/s] | viscosity [mPa·s]
293.15 K | 814.14 | 1387 | 3.52
303.15 K | 807.22 | 1349.1 | 2.79
313.15 K | 800.29 | 1312.1 | 2.27
323.15 K | 793.36 | 1275.9 | 1.88
333.15 K | 786.42 | 1240.5 | 1.58
343.15 K | 779.5 | – | 1.36
353.15 K | 772.5 | – | 1.16
363.15 K | 765.5 | – | 1.04
373.15 K | 758.5 | – | 0.899

CCCCCCCCCCC1CCCCC1 [decylcyclohexane]
[2]
Settings | mass density [kg/m3] | speed of sound [m/s] | viscosity [mPa·s]
293.15 K | 818.55 | 1406.7 | 5.32
303.15 K | 811.78 | 1369.4 | 4.09
313.15 K | 805.02 | 1333 | 3.23
323.15 K | 798.27 | 1297.5 | 2.62
333.15 K | 791.5 | 1262.9 | 2.16
343.15 K | 784.8 | – | 1.82
353.15 K | 778 | – | 1.55
363.15 K | 771.2 | – | 1.34
373.15 K | 764.4 | – | 1.17

CCCC1CCCCC1 [1-cyclohexylpropane]
[2]
Settings | mass density [kg/m3] | speed of sound [m/s] | viscosity [mPa·s]
293.15 K | 793.54 | 1307.8 | 0.996
303.15 K | 785.73 | 1266.2 | 0.86
313.15 K | 777.9 | 1225.6 | 0.75
323.15 K | 770.04 | 1185.9 | 0.663
333.15 K | 762.12 | 1147.3 | 0.584
343.15 K | 754.2 | – | 0.544
353.15 K | 746.1 | – | 0.477
363.15 K | 738 | – | 0.452

CCCCCCC1CCCCC1 [hexylcyclohexane]
[2]
Settings | mass density [kg/m3] | speed of sound [m/s] | viscosity [mPa·s]
293.15 K | 807.71 | 1361 | 2.2
303.15 K | 800.56 | 1322.1 | 1.81
313.15 K | 793.4 | 1284.2 | 1.51
323.15 K | 786.22 | 1247.1 | 1.29
333.15 K | 779.02 | 1211 | 1.09
343.15 K | 771.8 | – | 0.964
353.15 K | 764.6 | – | 0.847
363.15 K | 757.3 | – | 0.758

CCCCCCCCCCCCCCCC [hexadecane] + CCCCCCC1CCCCC1
[1]
Settings | mass density [kg/m3] | viscosity [mPa·s]
293.15 K | 773.37 | 3.47
303.15 K | 766.43 | 2.76
313.15 K | 759.51 | 2.24
323.15 K | 752.61 | 1.86
333.15 K | 745.69 | 1.56
343.15 K | 738.8 | 1.35
353.15 K | 731.9 | 1.15
363.15 K | 724.9 | 1.02
